Converted amounts (≈) assume the structure as drawn. Like-named read-outs stand apart in the source and are kept apart here.
Tests used:
[1] = system: S. cerevisiae AD3Δ overexpressing ScErg11p6×His wild type, native ERG11 deleted; assay: MIC50 broth microdilution, AD3Δ strain overexpressing wild type ScErg11p6×His; format: cell-based, Saccharomyces cerevisiae; conditions: for fold more active than the R enantiomer (MIC50): S versus R enantiomer, MIC50 values for AD3Δ strains
Description: (§1) The susceptibility to azole compounds of S. cerevisiae AD3Δ strains overexpressing Erg11p6×His wild type and Y140F/H, but with the native ERG11 deleted, as well as the host strain (AD2Δ) which retained the wild type ERG11 (S2 Table), were measured as MIC50 values (Table 1). […] PTZ has been reported to be a prodrug for DPZ [27]. […] There was a 3.3 fold (0.28 ± 0.02 μM) and a 4.3 fold (1.2 ± 0.2 μM) reduction in susceptibility to S-PTZ in the Y140F and Y140H mutant strains respectively. There was only a 2 fold reduction in susceptibility to R-PTZ in the Y140H mutant strain with no change seen in the Y140F strain. The PTZ metabolite, S-DPZ produced a 4.6 fold (0.073 ± 0.016 μM) and 3 fold (0.048 ± 0.009 μM) reduction is susceptibility against the Y140F and Y140H mutant strains respectively. […] Again we observed 8.3 fold (3.3 ± 0.7 μM) and 4 fold (1.6 ± 0.5 μM) reduction in susceptibility to FQZ in the Y140F and Y140H mutant strains respectively.
(§2) The susceptibilities of strains overexpressing wild type ScErg11p6×His and ScErg11p6×His Y140F/H to CYP51 inhibitors were measured as MIC50 values using broth microdilution assays as described previously.[21] The MIC50s were defined as the concentration of drug required for 50% growth inhibition compared to no drug controls.

[2] = system: S. cerevisiae AD2Δ host strain (native ERG11 retained); assay: MIC50 broth microdilution, AD2Δ host strain with native ERG11 retained; format: cell-based, Saccharomyces cerevisiae
Description: as §1, §2

[3] = system: S. cerevisiae AD3Δ overexpressing ScErg11p6×His Y140H, native ERG11 deleted; assay: MIC50 broth microdilution, strain overexpressing ScErg11p6×His Y140H; format: cell-based, Saccharomyces cerevisiae; conditions: for fold reduction in susceptibility in Y140H mutant strain: MIC50 Y140H strain versus AD3Δ wild type overexpressing strain
Description: as §1, §2

[4] = system: S. cerevisiae AD3Δ overexpressing ScErg11p6×His Y140F, native ERG11 deleted; assay: MIC50 broth microdilution, strain overexpressing ScErg11p6×His Y140F; format: cell-based, Saccharomyces cerevisiae; conditions: for fold reduction in susceptibility in Y140F mutant strain: MIC50 Y140F strain versus AD3Δ wild type overexpressing strain
Description: as §1, §2

[5] = biological target: T1, ScErg11p6×His (S. cerevisiae lanosterol 14α-demethylase) (Saccharomyces cerevisiae, UniProt P10614); assay: Type II binding (difference spectra) to affinity purified ScErg11p6×His; conditions: for [Azole]0.5: azole concentration giving half ΔAmax, 1 µM ScErg11p6×His; for type of binding (difference spectra): azole up to 2 μM, 1 μM ScErg11p6×His; for Induced spectral shift on ligand binding Wavelength: Soret peak, (-) indicates no significant change in Soret peak wavelength; for mode of inhibition: ScErg11p6×His
T1 construct: Crystal structures of the full length S. cerevisiae lanosterol 14α-demethylase (ScErg11p6×His); 6×His (hexahistidine); made in house; host or cells: Saccharomyces cerevisiae (AD3Δ overexpression strain, native ERG11 deleted)
Description: Type II azole binding is characterised by a shift of the Soret peak from 417 nm to 421–424 nm in ScErg11p6×His and other cytochrome P450s. The type II difference spectra were used to detect and quantitate binding of the inhibitors S-TBZ, R-TBZ, S-PTZ, R-PTZ, S-DPZ, R-DPZ, S-oxo-PTZ and R-oxo-PTZ, FQZ, and PRZ using Ni-NTA affinity purified wild type ScErg11p6×His preparations at 1 μM. Spectral shifts, [Azole]0.5 values, Hill coefficients as well as Type II difference spectra binding curves are shown in S3 Table (selected spectra shown in S2 Fig) and Fig 6, respectively.
Samples of Ni-NTA-agarose affinity purified ScErg11p6×His were eluted with 40 mM histidine instead of imidazole as described by Warrilow et al.. Samples were washed free of the histidine and concentrated by centrifugal filtration using a 50 kDa molecular-weight cut-off Amicon Ultra-4 centrifugal filter (Millipore) to give protein with a Soret peak at 417 nm. Carbon monoxide binding was used to determine the concentration of functional cytochrome P450 for drug binding studies as described previously based on the protocol described by Guengerich et al. Saturation curves for the binding of type II ligands were determined by obtaining difference spectra for functional enzyme at 1 μM as described previously. […] All calculations were carried out using GraphPad Prism 6 Software (GraphPad Prism, San Diego, CA). [Azole]0.5 values were defined as the concentration of the azole drug that gave half ΔAmax.
Hill coefficients and Kd values were obtained by applying the Hill equation as described in Materials and methods. (-) indicates no significant change in Soret peak wavelength on exposure to the ligand. The data presented is a representative set

[6] = system: Alternaria sonali, Fulvia fulva, Botrytis cinerea and Rhizoctonia solani; design: method as in PMID 23451708; conditions: 4 fungal pathogens; cited from earlier work
[7] = system: Candida albicans CYP51; design: method as in PMID 23275516; conditions: cited from earlier work
[8] = AD3Δ, ScErg11p6×His overexpressed from PDR5 locus, native ERG11 deleted, mean ± standard error
[9] = AD2Δ host, native ERG11 retained, mean ± standard error
[10] = Y140H, ScErg11p6×His Y140H overexpressed from PDR5 locus, native ERG11 deleted, mean ± standard error
[11] = Y140F, ScErg11p6×His Y140F overexpressed from PDR5 locus, native ERG11 deleted, mean ± standard error

T1 sequence (P10614 whole entry): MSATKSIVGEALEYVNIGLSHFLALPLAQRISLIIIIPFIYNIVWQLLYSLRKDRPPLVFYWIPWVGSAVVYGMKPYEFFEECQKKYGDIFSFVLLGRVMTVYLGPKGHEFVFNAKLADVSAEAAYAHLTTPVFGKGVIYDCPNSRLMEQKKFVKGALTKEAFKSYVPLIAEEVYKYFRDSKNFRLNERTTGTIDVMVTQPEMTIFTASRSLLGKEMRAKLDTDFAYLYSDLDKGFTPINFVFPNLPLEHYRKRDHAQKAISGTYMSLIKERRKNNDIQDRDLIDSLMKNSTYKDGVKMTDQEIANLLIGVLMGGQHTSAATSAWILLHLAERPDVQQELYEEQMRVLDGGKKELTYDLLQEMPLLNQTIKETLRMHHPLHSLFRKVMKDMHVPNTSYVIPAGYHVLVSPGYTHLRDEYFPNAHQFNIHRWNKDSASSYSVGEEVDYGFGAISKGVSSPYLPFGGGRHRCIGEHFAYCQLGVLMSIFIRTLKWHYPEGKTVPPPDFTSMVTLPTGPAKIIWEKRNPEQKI

SMILES	MIC50 ([1]; Saccharomyces cerevisiae) [µM]	MIC50 ([2]; Saccharomyces cerevisiae) [µM]	fold reduction in susceptibility in Y140H mutant strain [3] [fold]	MIC50 ([3]; Saccharomyces cerevisiae) [µM]	fold reduction in susceptibility in Y140F mutant strain [4] [fold]	MIC50 ([4]; Saccharomyces cerevisiae) [µM]	Kd [5] [nM]	[Azole]0.5 [5] [µM]	type of binding (difference spectra) [5]	Induced spectral shift on ligand binding Wavelength [5]	also measured
CC1COC(Cn2cncn2)(c2ccc(Oc3ccc(Cl)cc3)cc2Cl)O1 (stereo not shown) [Difenoconazole, difenoconazole]	0.047 ± 0.009 (≈ 0.0191 µg/mL)	0.0147 ± 0.0003 (≈ 0.00597 µg/mL)	5	0.237 ± 0.003 (≈ 0.0963 µg/mL)	5.2	0.243 ± 0.003 (≈ 0.0987 µg/mL)	–	–	–	–	–
CC(C)(C)[C@](O)(CCc1ccc(Cl)cc1)Cn1cncn1 [R-Tebuconazole, R-tebuconazole]	1.1 ± 0.3 (≈ 0.339 µg/mL)	0.12 (≈ 0.0369 µg/mL)	–	5.2 ± 1.3 (≈ 1.6 µg/mL)	–	2 ± 0.2 (≈ 0.616 µg/mL)	65 ± 35	0.30	type II binding	–	–
O[C@@](Cc1ccccc1Cl)(Cn1cncn1)C1(Cl)CC1 [S-Prothioconazole-desthio, S-prothioconazole-desthio]	0.0157 ± 0.0003 (≈ 0.0049 µg/mL)	0.006 ± 0.001 (≈ 0.00187 µg/mL)	3	0.048 ± 0.009 (≈ 0.015 µg/mL)	4.6	0.073 ± 0.016 (≈ 0.0228 µg/mL)	102 ± 45	0.42	type II binding	–	fold more active than the R enantiomer (MIC50) [1]: 200 fold
C[C@@H]1CO[C@@](Cn2cncn2)(c2ccc(Oc3ccc(Cl)cc3)cc2Cl)O1 [2S,4R stereoisomer, 1-(((2S,4R)-2-(2-chloro-4-(4-chlorophenoxy)phenyl)-4-methyl-1,3-dioxolan-2-yl)methyl)-1H-1,2,4-triazole]	–	–	–	–	–	–	–	–	–	–	stereoselective bioactivity among DFC stereoisomers [6]: most active compound
O=c1[nH]cnn1CC(O)(Cc1ccccc1Cl)C1(Cl)CC1 (stereo not shown) [R-Oxo-prothioconazole, R-oxo-prothioconazole]	–	–	–	–	–	–	–	–	neither type I nor type II binding	417(-) nm	MIC50 [1, 8]: 80 ± 2 µM (≈ 26.3 µg/mL); MIC50 [2, 9]: 75.0 ± 3.0 µM (≈ 24.6 µg/mL); MIC50 [3, 10]: 95 ± 5 µM (≈ 31.2 µg/mL); MIC50 [4, 11]: 87 ± 7 µM (≈ 28.6 µg/mL)
O=c1[nH]cnn1CC(O)(Cc1ccccc1Cl)C1(Cl)CC1 (stereo not shown) [oxo-PTZ, oxo-prothioconazole]	–	–	–	–	–	–	–	–	–	absence of a spectral shift	–
O[C@](Cc1ccccc1Cl)(Cn1cncn1)C1(Cl)CC1 [R-Prothioconazole-desthio, R-prothioconazole-desthio]	3.2 ± 0.2 (≈ 0.999 µg/mL)	0.47 ± 0.05 (≈ 0.147 µg/mL)	2.3	7.5 (≈ 2.34 µg/mL)	2.3	7.5 (≈ 2.34 µg/mL)	54 ± 31	0.33	type II binding	–	–
CC(C)(C)C(O)(CCc1ccc(Cl)cc1)Cn1cncn1 (stereo not shown) [TBZ, tebuconazole]	–	–	–	–	–	–	–	–	–	417 nm to ~421	mode of inhibition [5]: non-competitive inhibitors
O=c1[nH]cnn1CC(O)(Cc1ccccc1Cl)C1(Cl)CC1 (stereo not shown) [S-Oxo-prothioconazole, S-oxo-prothioconazole]	–	–	–	–	–	–	–	–	neither type I nor type II binding	417(-) nm	MIC50 [1, 8]: 84 ± 3 µM (≈ 27.6 µg/mL); MIC50 [2, 9]: 75.0 ± 0.0 µM (≈ 24.6 µg/mL); MIC50 [3, 10]: 97 ± 3 µM (≈ 31.8 µg/mL); MIC50 [4, 11]: 87 ± 7 µM (≈ 28.6 µg/mL)
OC(Cc1ccccc1Cl)(Cn1nc[nH]c1=S)C1(Cl)CC1 (stereo not shown) [R-Prothioconazole, R-prothioconazole]	–	–	–	–	–	–	–	–	–	417 (-) nm	MIC50 [1, 8]: 16 ± 3 µM (≈ 5.51 µg/mL); MIC50 [2, 9]: 5.2 ± 1.3 µM (≈ 1.79 µg/mL); fold reduction in susceptibility in Y140H mutant strain ([3]; listed as R-PTZ): 2 fold; MIC50 [3, 10]: 31 ± 4 µM (≈ 10.7 µg/mL); fold reduction in susceptibility in Y140F mutant strain ([4]; listed as R-PTZ): no change; MIC50 [4, 11]: 16 ± 4 µM (≈ 5.51 µg/mL)
OC(Cc1ccccc1Cl)(Cn1nc[nH]c1=S)C1(Cl)CC1 (stereo not shown) [S-Prothioconazole, S-prothioconazole]	–	–	–	–	–	–	–	–	–	417 (-) nm	MIC50 [1, 8]: 0.28 ± 0.02 µM (≈ 0.0964 µg/mL); fold more active than the R enantiomer (MIC50) [1]: 57 fold; MIC50 [2, 9]: 0.077 ± 0.003 µM (≈ 0.0265 µg/mL); fold reduction in susceptibility in Y140H mutant strain ([3]; listed as S-PTZ): 4.3 fold; MIC50 [3, 10]: 1.2 ± 0.2 µM (≈ 0.413 µg/mL); MIC50 [4, 11]: 0.93 ± 0.0 µM (≈ 0.32 µg/mL)
OC(Cc1ccccc1Cl)(Cn1nc[nH]c1=S)C1(Cl)CC1 (stereo not shown) [PTZ, prothioconazole]	–	–	–	–	–	–	–	–	no binding	absence of a spectral shift	Kd ([7]; Candida albicans CYP51, type I difference spectra, read-out: Kd (weak type I difference spectra)): 6300 ± 1500 nM
O=c1c2cc(F)ccc2nc(-n2cncn2)n1-c1ccc(Cl)cc1Cl [Fluquinconazole, fluquinconazole]	0.4 ± 0.05 (≈ 0.15 µg/mL)	0.17 ± 0.02 (≈ 0.064 µg/mL)	4	1.6 ± 0.5 (≈ 0.602 µg/mL)	8.3	3.3 ± 0.7 (≈ 1.24 µg/mL)	15 ± 21	0.31	type II binding	–	mode of inhibition [5]: non-competitive inhibitors; Induced spectral shift on ligand binding Wavelength ([5]; listed as FQZ): 417 nm to ~421
OC(Cc1ccccc1Cl)(Cn1cncn1)C1(Cl)CC1 (stereo not shown) [DPZ, prothioconazole-desthio]	–	–	–	–	–	–	–	–	–	417 nm to ~421	Kd ([7]; read-out: Kd (tight type II binding), Candida albicans CYP51, type II binding): 36.4 ± 10.7 nM; mode of inhibition [5]: non-competitive inhibitors
CC(C)(C)[C@@](O)(CCc1ccc(Cl)cc1)Cn1cncn1 [S-Tebuconazole, S-tebuconazole]	0.073 ± 0.015 (≈ 0.0225 µg/mL)	0.0197 ± 0.0003 (≈ 0.00606 µg/mL)	11.9	0.87 ± 0.06 (≈ 0.268 µg/mL)	8.7	0.64 ± 0.11 (≈ 0.197 µg/mL)	115 ± 44	0.33	type II binding	–	fold more active than the R enantiomer (MIC50) [1]: 15 fold
CCCN(CCOc1c(Cl)cc(Cl)cc1Cl)C(=O)n1ccnc1 [Prochloraz, prochloraz]	1.9 ± 0.5 (≈ 0.716 µg/mL)	0.25 ± 0.02 (≈ 0.0942 µg/mL)	3.5	6.7 ± 0.7 (≈ 2.52 µg/mL)	2.3	4.3 ± 0.8 (≈ 1.62 µg/mL)	27 ± 24	0.30	type II binding	–	mode of inhibition [5]: non-competitive inhibitors; Induced spectral shift on ligand binding Wavelength ([5]; listed as PRZ): 417 nm to ~421
